Test results: PubChem BioAssay (NCI)
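The concentration for 50% growth inhibition is given as GI50. At the TGI there is no net growth.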

Columns and labels:
Assay in all cases: NCI anticancer screen, dose series, 384-well format
BT-549 breast = system: BT-549 breast
DU-145 prostate = system: DU-145 prostate
EKVX NSCLC = system: EKVX NSCLC
HCT-116 colon = system: HCT-116 colon
HCT-15 colon = system: HCT-15 colon
HL-60(TB) leukemia = system: HL-60(TB) leukemia
M14 melanoma = system: M14 melanoma
MDA-MB-468 breast = system: MDA-MB-468 breast
OVCAR-3 ovarian = system: OVCAR-3 ovarian
SF-268 CNS = system: SF-268 CNS
SNB-75 CNS = system: SNB-75 CNS
U251 glioblastoma = system: U251 glioblastoma
UO-31 renal = system: UO-31 renal

SMILES	GI50 (BT-549 breast)	TGI (BT-549 breast)	GI50 (DU-145 prostate)	TGI (DU-145 prostate)	GI50 (EKVX NSCLC)	TGI (EKVX NSCLC)	GI50 (HCT-116 colon)	TGI (HCT-116 colon)	GI50 (HCT-15 colon)	TGI (HCT-15 colon)	GI50 (HL-60(TB) leukemia)	TGI (HL-60(TB) leukemia)	GI50 (M14 melanoma)	TGI (M14 melanoma)	GI50 (MDA-MB-468 breast)	TGI (MDA-MB-468 breast)	GI50 (OVCAR-3 ovarian)	TGI (OVCAR-3 ovarian)	GI50 (SF-268 CNS)	TGI (SF-268 CNS)	other results
Cc1c(Br)c(Br)c2c3c1nc(N1CCNCC1)n3CCC2	1.35 µM	2.64 µM	1.67 µM	3.12 µM	1.57 µM	2.95 µM	1.37 µM	2.7 µM	1.6 µM	2.98 µM	0.49 µM	0.998 µM	1.53 µM	2.88 µM	1.15 µM	2.37 µM	1.42 µM	2.74 µM	1.33 µM	2.65 µM	GI50 (SNB-75 CNS): 1.97 µM; TGI (SNB-75 CNS): 3.4 µM; GI50 (U251 glioblastoma): 1.66 µM; TGI (U251 glioblastoma): 3.04 µM; GI50 (UO-31 renal): 1.45 µM; TGI (UO-31 renal): 2.78 µM
CN1C(=O)[C@@H](CC2CCCC2)N(C2CCCC2)c2nc(Nc3cc(Cl)c(O)c(Cl)c3)ncc21	4.02 µM	17.5 µM	6.56 µM	64.7 µM	3.55 µM	20 µM	3.9 µM	13.7 µM	4.62 µM	21 µM	1.75 µM	3.17 µM	6.27 µM	97.7 µM	2.89 µM	8.38 µM	4.55 µM	15.8 µM	11.2 µM	70 µM	GI50 (SNB-75 CNS): 6.35 µM; TGI (SNB-75 CNS): 49 µM; GI50 (U251 glioblastoma): 5.66 µM; TGI (U251 glioblastoma): 19.1 µM; GI50 (UO-31 renal): 4.75 µM; TGI (UO-31 renal): 23.2 µM
